These results are taken from patent US20150133493A1, “COUMARIN-BASED COMPOUNDS FOR THE TREATMENT OF ALZHEIMER'S DISEASE AND CANCER” (Sloan-Kettering Institute for Cancer Research, priority 2008, published 2015).

Test [1] deals with T1, γ-secretase (Homo sapiens, UniProt P49768).
T1 construct: endogenous in cells
Put plainly: In vitro γ-secretase activity assay, Aβ42 production (ECL). In kind it is biochemical. The conditions noted are these: in vitro inhibition of γ-secretase activity that generates Aβ42; 2.5 hr at 37° C., ECL detection. As to the method:
FIG. 2. In vitro characterization of coumarin-dimer allosteric GSIs against various γ-secretase cleavage products. […] The IC50 values were calculated from the dose response curves using a non-linear regression analysis in Prism software. […] The three β-amyloid-detection in vitro assays were modified from our previously reported assay (21) using a biotinylated substrate that eliminated the requirement of anti-β-amyloid biotinylated antibody. Ruthenylated antibodies that detected the -40, -42, or -38 cleavage site were incorporated to detect proteolysis indicative of γ-secretase activity. In vitro Notch assay utilized a recombinant transmembrane portion of the Notch peptide and anti-Notch1 SM320 antibody in conjunction with ruthenylated anti-rabbit secondary antibodies. Electrochemiluminescence was quantified on an Analyzer (BioVeris).
Briefly, recombinant peptide substrate was incubated with γ-secretase (40 μg/ml) in the presence or absence of test compound. […] The reaction was incubated for 2.5 hr at 37° C. and stopped by adding RIPA buffer (150 mM NaCl, 1.0% NP-40, 0.5% sodium deoxycholate, 0.1% SDS, 50 mM Tris HCl, pH 8.0). […] The amount of product was determined using synthetic peptide or recombinant standards.
(§1) Cell membranes and solubilized γ-secretase were prepared as described previously (36). The in vitro and cell γ-secretase assays detecting either Aβ38, Aβ40, or Aβ42 cleavage were performed similar as previously described (21, 36). Cleaved product was detected using ruthenylated antibodies that recognize specific APP cleavage sites (Aβ31-38*, G2-10*, or G2-11* antibody for Aβ38, Aβ40, or Aβ42 respectively). The Km and Vmax in the presence and absence of γ-secretase inhibitors were analyzed by non-linear curve fit using the software SigmaPlot 8.0 with the Michaelis-Menten equation (v=Vm [S]/(Km+[S]; v: initial rate; Vm: maximum velocity; Km: the Michaelis-Menten constant, S: substrate).

Test [2] has as its target T1, γ-secretase. Put plainly: In vitro γ-secretase activity assay, Aβ40 production (ECL). The format is biochemical. The conditions noted are these: for IC50: in vitro inhibition of γ-secretase activity that generates Aβ40, 2.5 hr at 37° C., ECL detection; for Aβ40/Aβ42 ratio: ratio of IC50 for Aβ40 to IC50 for Aβ42. How it is done:
FIG. 2. In vitro characterization of coumarin-dimer allosteric GSIs against various γ-secretase cleavage products. The potency of 7 unique coumarin-based γ-secretase inhibitors were evaluated for efficacy against γ-secretase-mediated production of Aβ40, Aβ42, Aβ38, and Notch. Additionally, the pan-GSI Compound E was also examined in these assays. The IC50 values were calculated from the dose response curves using a non-linear regression analysis in Prism software. IC50 values are presented with standard deviation (n=3 for each data point). The three β-amyloid-detection in vitro assays were modified from our previously reported assay (21) using a biotinylated substrate that eliminated the requirement of anti-β-amyloid biotinylated antibody. Ruthenylated antibodies that detected the -40, -42, or -38 cleavage site were incorporated to detect proteolysis indicative of γ-secretase activity. In vitro Notch assay utilized a recombinant transmembrane portion of the Notch peptide and anti-Notch1 SM320 antibody in conjunction with ruthenylated anti-rabbit secondary antibodies. Electrochemiluminescence was quantified on an Analyzer (BioVeris). The selectivity ratio for Aβ42 inhibition over Aβ40 and Notch are indicated in the two far right columns.
The assay protocol employed was a modified version of that described in Li et al., 2000, Proc. Nat'l Acad. Sci. USA 97:6183-643, incorporated herein by reference. Briefly, recombinant peptide substrate was incubated with γ-secretase (40 μg/ml) in the presence or absence of test compound. The reaction mixture contained 0.25% CHAPSO, 0.1 μg/μl BSA, protease inhibitor, 50 mM PIPES, pH 7.0, 5 mM MgCl2, 5 mM CaCl2 and 150 mM KCl. The reaction was incubated for 2.5 hr at 37° C. and stopped by adding RIPA buffer (150 mM NaCl, 1.0% NP-40, 0.5% sodium deoxycholate, 0.1% SDS, 50 mM Tris HCl, pH 8.0). The products were detected with various antibody combinations using electrochemiluminescence (ECL) technology as previously described in Li et al., 2000, Proc. Nat'l Acad. Sci. USA 97:6183-643; Lai et al., 2003, J. Biol. Chem. 278: 22475-22481; and Yin et al., 2007, J. Biol. Chem. 282:23639-23644. The amount of product was determined using synthetic peptide or recombinant standards.
as §1

`O=c1oc2ccccc2c(O)c1C(/C=C/c1cc(F)c(F)c(F)c1)c1c(O)c2ccccc2oc1=O` [(trans)-1] came in with an IC50 against γ-secretase [1] of 2.9 µM. On γ-secretase [2], the IC50 is 3.7 µM and the Aβ40/Aβ42 ratio is 1.3.
For `COc1ccc(/C=C/C(c2c(O)c3ccccc3oc2=O)c2c(O)c3ccccc3oc2=O)cc1` [(trans)-258] the same measures were 5.6 µM, 21.5 µM and 3.8.
The matching figures for `O=c1[nH]c2ccccc2c(O)c1C(c1cc(F)c(F)c(F)c1)c1c(O)c2ccccc2[nH]c1=O` [Compound 45]: 3.4 µM, 8 µM and 2.4.
For the compound `O=c1sc2ccccc2c(O)c1C(c1cc(F)c(F)c(F)c1)c1c(O)c2ccccc2sc1=O` [Compound 53], half-maximal inhibition on γ-secretase [1] (IC50) required 0.5 µM. For the same compound, at γ-secretase [2], the 50% inhibitory concentration (IC50) is 1.3 µM and the Aβ40/Aβ42 ratio came out at 2.6.
For `O=c1oc2ccccc2c(O)c1C(c1cc(F)cc(F)c1)c1c(O)c2ccccc2oc1=O` [Compound 61] the same measures were 0.17 µM, 0.34 µM and 2.0.
The compound `COc1ccc(C(c2c(O)c3ccccc3oc2=O)c2c(O)c3ccccc3oc2=O)cc1F` [Compound 77] yielded a concentration for half-maximal inhibition (IC50) on γ-secretase [1] of 2.8 µM. Moreover, at γ-secretase [2], the IC50 came to 6.2 µM and the Aβ40/Aβ42 ratio came out at 2.2.
Turning to `Cc1ccc2oc(=O)c(C(c3cc(F)c(F)c(F)c3)c3c(O)c4cc(C)ccc4oc3=O)c(O)c2c1` [Compound 197], on γ-secretase [1], the IC50 came to 1.59 µM. In addition, on γ-secretase [2], the IC50 was 3.26 µM and the Aβ40/Aβ42 ratio is reported as 2.1.
For the compound `O=c1oc2ccccc2c(O)c1C(Cc1ccc(F)cc1)c1c(O)c2ccccc2oc1=O` [Compound 199], the IC50 on γ-secretase [1] stood at 0.9 µM. At γ-secretase [2], the IC50 turned out to be 4 µM and the Aβ40/Aβ42 ratio turned out to be 4.4.
Turning to `O=c1oc2ccc(F)cc2c(O)c1C(c1cc(F)c(F)c(F)c1)c1c(O)c2cc(F)ccc2oc1=O` [Compound 203], the IC50 at γ-secretase [1] was 0.9 µM. In addition, at γ-secretase [2], the concentration for half-maximal inhibition (IC50) is 2.6 µM and the Aβ40/Aβ42 ratio is 2.9.
As for `O=c1oc2ccccc2c(O)c1C(c1cccc(C(F)(F)F)c1)c1c(O)c2ccccc2oc1=O` [Compound 209], inhibition at γ-secretase [1] was half-maximal at 0.8 µM (IC50). Also, on γ-secretase [2], the IC50 is 2 µM and the Aβ40/Aβ42 ratio is 2.5.
For `CCc1ccc(C(c2c(O)c3ccccc3oc2=O)c2c(O)c3ccccc3oc2=O)cc1` [Compound 210] the same measures were 1.9 µM, 4.6 µM and 2.4.
For `C/C=C/C=C/C(c1c(O)c2ccccc2oc1=O)c1c(O)c2ccccc2oc1=O` [Compound 257] the same measures were 7.3 µM, 9.9 µM and 1.4.
Compound `O=c1oc2ccccc2c(O)c1C1c2cc(F)c(F)cc2Oc2c1c(=O)oc1ccccc21` (stereo not shown) [Compound 369] had a 50% inhibitory concentration (IC50) against γ-secretase [1] of 0.9 µM. Further, on γ-secretase [2], the IC50 stood at 2.6 µM and the Aβ40/Aβ42 ratio stood at 2.9.
On to `Nc1ccc2c(c1)Oc1c(c(=O)oc3ccccc13)C2c1c(O)c2ccccc2oc1=O` (stereo not shown) [Compound 372], for which, at γ-secretase [1], the midpoint of inhibition, the IC50, lay at 9.9 µM. At γ-secretase [2], the 50% inhibitory concentration (IC50) was determined as 19.4 µM and the Aβ40/Aβ42 ratio is recorded as 2.0.
As for `O=c1oc2ccccc2c(O)c1C1c2c(F)c(F)c(F)c(F)c2Oc2c1c(=O)oc1ccccc21` (stereo not shown) [Compound 423], the figures for the half-inhibitory concentration (IC50) at γ-secretase [1] and at γ-secretase [2] were 1.3 µM and 3.4 µM, respectively. Further, the Aβ40/Aβ42 ratio at γ-secretase [2] worked out at 2.6.
`O=C(Cc1cc(F)cc(F)c1)c1c(O)c2ccccc2oc1=O` [Compound 560] registered an IC50 at γ-secretase [1] of 26.9 µM. On γ-secretase [2], the 50% inhibitory concentration (IC50) worked out at 89.9 µM and the Aβ40/Aβ42 ratio is given as 3.3.
Turning to `O=c1oc2ccccc2c(O)c1C(c1ccc(C(F)(F)F)cc1)c1c(O)c2ccccc2oc1=O` [Compound 728], the IC50 at γ-secretase [1] came out at 1.6 µM. Further, on γ-secretase [2], the 50% inhibitory concentration (IC50) stood at 7 µM and the Aβ40/Aβ42 ratio worked out at 4.4.
For `CC(=O)Nc1ccc(C(c2c(O)c3ccccc3oc2=O)c2c(O)c3ccccc3oc2=O)cc1` [Compound 732] the same measures were 15.9 µM, 63.9 µM and 4.0.
In turn, `O=c1oc2ccccc2c(O)c1C(c1c(O)c2ccccc2oc1=O)C1CCCCC1` [Compound 733] gave an IC50 against γ-secretase [1] of 1.2 µM. Also, at γ-secretase [2], the IC50 came out at 4.2 µM and the Aβ40/Aβ42 ratio is given as 3.5.
Consider `O=c1oc2ccccc2c(O)c1C(c1ccccc1F)c1c(O)c2ccccc2oc1=O` [Compound 734], for which the IC50 turned out to be 7.2 µM on γ-secretase [1] and 1.95 µM on γ-secretase [2]. On γ-secretase [2], the Aβ40/Aβ42 ratio came to 0.3.
`Oc1ccnc(O)c1C(c1cc(F)c(F)c(F)c1)c1c(O)ccnc1O` [Compound 738]: the IC50 against γ-secretase [1] and on γ-secretase [2] was > 100 µM throughout.
On to `O=c1oc2ccccc2c(O)c1Cc1cc(F)c(F)c(F)c1` [compound 476], for which the half-maximal inhibitory concentration (IC50) on γ-secretase [1] and at γ-secretase [2] was > 100 µM in each case.
Turning to `O=C(CC(c1cc(F)c(F)c(F)c1)c1c(O)c2ccccc2oc1=O)NCc1cc(F)cc(F)c1` (stereo not shown) [compound 512], the half-maximal inhibitory concentration (IC50) against γ-secretase [1] was 1.24 µM; on γ-secretase [2], 1.86 µM. In addition, the Aβ40/Aβ42 ratio at γ-secretase [2] was determined as 1.5.
For `O=C(Cc1cc(F)cc(F)c1)NCCNC(=O)CC(c1cc(F)c(F)c(F)c1)c1c(O)c2ccccc2oc1=O` (stereo not shown) [compound 520] the same measures were 4.53 µM, 9.23 µM and 2.0.
Consider `Cc1coc(=O)c(C(c2cc(F)c(F)c(F)c2)c2c(O)c(C)coc2=O)c1O` [compound 668], for which half-maximal inhibition on γ-secretase [1] (IC50) was put at 1.7 µM. Moreover, at γ-secretase [2], the half-inhibitory concentration (IC50) was determined as 4.2 µM and the Aβ40/Aβ42 ratio amounted to 2.5.
Turning to `O=c1oc2ccccc2c(O)c1C(c1ccc(Cl)cc1)c1c(O)c2ccccc2oc1=O` [compound 729], the results for the concentration for half-maximal inhibition (IC50) against γ-secretase [1] and on γ-secretase [2] were 1.2 µM and 1.7 µM, respectively. Moreover, the Aβ40/Aβ42 ratio at γ-secretase [2] came to 1.4.
With `O=c1oc2ccccc2c(O)c1C(c1ccc(Br)cc1)c1c(O)c2ccccc2oc1=O` [compound 730], on γ-secretase [1], the concentration for half-maximal inhibition (IC50) was 1.2 µM. For the same compound, on γ-secretase [2], the 50% inhibitory concentration (IC50) is 1.7 µM and the Aβ40/Aβ42 ratio was found to be 1.4.
For `O=c1oc2ccccc2c(O)c1C(c1ccc(I)cc1)c1c(O)c2ccccc2oc1=O` [compound 731], the results for the half-inhibitory concentration (IC50) on γ-secretase [1] and at γ-secretase [2] were 1.5 µM and 6.1 µM, respectively. The Aβ40/Aβ42 ratio at γ-secretase [2] stood at 4.1.
